Read-outs that look alike come from different tables or passages of the source.
Assays:
[1] = target: SARS-CoV-2 M^pro (3CL protease) (Severe acute respiratory syndrome coronavirus 2 (2019-nCoV) (SARS-CoV-2), UniProt P0DTD1); format: biochemical; details: read-out: SARS-CoV-2M^pro inhibition IC50
SARS-CoV-2 = test: Anti-viral in vitro PRNT assay in Vero E6 cells; format: cell-based; details: Vero E6 cells, 1000 pfu, 3 days, plaque reduction; for EC50: read-out: anti-SARS-CoV2 (PRNT) in Vero E6 EC50
[2] = format: in vitro ADME, Human; details: extraction ratio; for Liver Microsomal Stability (ER) Human: compound at 1 uM, human liver microsomes 0.5 mg/mL
[3] = format: in vitro ADME; details: extraction ratio, compound at 1 uM; for Liver Microsomal Stability (ER) SD rat: SD rat liver microsomes 0.5 mg/mL; for Liver Microsomal Stability (ER) Beagle dog: beagle dog liver microsomes 0.5 mg/mL; for Liver Microsomal Stability (ER) Monkey: monkey liver microsomes 0.5 mg/mL; for Liver Microsomal Stability (ER) Mouse: mouse liver microsomes 0.5 mg/mL
in vivo = details: female, Balb/c, mouse, po, 40 mg/kg
Procedure: (§1) Pharmacokinetics of test compounds was evaluated following an oral administration of a single dose (at 40 mg/kg) to female Balb/c mice.
(§2) Procedure: Test compounds were administered to Balb/c mice (n=3 per sex per time point) by a single oral gavage. The target dose level for oral administration was 40 mg/kg. Blood samples were collected at pre-dose, and at 0.083, 0.25, 0.50, 1, 2, 4, 6, 8, and 12 hours post-dose. Concentrations of test compound were determined by an LC-MS/MS. Non-compartmental Pharmacokinetic parameters of test compounds were analyzed using Phoenix WinNonlin 8.3.
(§3) Animal Dosing: All animals were fasted overnight through approximately 4 hours post-dose. Tap water was provided to mice ad Libitum. The mice were dosed orally at 10.0 ml/kg. The formulation volume of the test compound administered to each animal was calculated based on the body weight measured on the day of dosing.
(§4) Sample Collection and Analysis: Approximately 0.20 mL of blood was collected via orbital sinus vein puncture into EDTA-K2 tubes. Plasma samples were harvested by centrifugation and stored at −80° C. until analysis. The analytical method for test compound involved protein precipitation by adding acetonitrile containing 1% FA and internal standard (A-1-a synthesized in house or Tolbutamide purchased from Sigma), and final analysis by LC-MS/MS. A standard curve was prepared using mouse plasma for the test compound. The calibration curve was linear over a concentration range of 1.0 to 1000 ng/mL.
(§5) Pharmacokinetic and Statistic Analysis: The reported plasma concentrations of test compounds were used to determine pharmacokinetic parameters, using a non-compartmental model for data analysis (Phoenix WinNonlin 8.3). The common pharmacokinetic parameters were calculated, whenever possible, from the plasma concentration-versus-time data. Nominal doses and sampling times were used, except where deviations were noted. […] BQL after Tmax would not participate in calculation of PK parameters.

[4] = mouse oral PK, female Balb/c, 40 mg/kg single dose; for AUC0-t / Cmax / Tmax / t1/2: plasma
Procedure: as §1, §2, §3, §4, §5

[5] = Severe acute respiratory syndrome coronavirus 2, Vero C1008, 72 h
[6] = wild type Mpro 17 nM, substrate 40 uM

Compound	IC50 [1]	EC50 (SARS-CoV-2; [5])	Liver Microsomal Stability (ER) Human [2]	Liver Microsomal Stability (ER) SD rat [3]	Liver Microsomal Stability (ER) Beagle dog [3]	Liver Microsomal Stability (ER) Monkey [3]	Liver Microsomal Stability (ER) Mouse [3]	IC50 [1, 6]	anti-SARS-CoV2 (PRNT) in Vero E6 EC50 (μM) (SARS-CoV-2)	AUC0-t (in vivo)	Cmax (in vivo)	Tmax (in vivo)	half-life (in vivo)	EC50 (SARS-CoV-2)	AUC0-t [4]	Cmax [4]	Tmax [4]	t1/2 [4]	F % (bioavailability) [4]	Liver Microsomal Stability (ER) Human, at 0.1 uM ([2]; compound at 0.1 uM, human liver microsomes)
CC(C)C[C@H](NC(=O)c1cc2ccccc2[nH]1)C(=O)N[C@@H](C[C@@H]1CCNC1=O)C(=O)CCl [Compound A-1-g, (2S)—N-[(2S)-4-chloro-3-oxo-1-[(3S)-2-oxopyrrolidin-3-yl]butan-2-yl]-2-[(1H-indol-2-yl)formamido]-4-methylpentanamide]	47 nM	18200 nM	0.80	0.77	0.71	0.68	0.53	–	–	–	–	–	–	–	–	–	–	–	–	–
CC(C)C[C@H](NC(=O)c1cc2ccccc2[nH]1)C(=O)N[C@@H](C[C@@H]1CCNC1=O)C(=O)CO [Compound A-1-h]	–	–	0.07	0.13	0.03	–	0.23	10.2 nM	Inactive	–	–	–	–	–	–	–	–	–	–	–
CC(C)C[C@H](NC(=O)c1cc2c(F)cccc2[nH]1)C(=O)N[C@H](C#N)C[C@@H]1CCNC1=O [Compound A-3-a, (2S)—N-[(1S)-1-cyano-2-[(3S)-2-oxopyrrolidin-3-yl]ethyl]-2-[(4-fluoro-1H-indol-2-yl)-formamido]-4-methylpentanamide]	–	5180 nM	0.02	0.21	0.03	0.27	0.07	–	–	15500 ng·h/mL	8050 ng/mL	60 min	58.6 min	–	–	–	–	–	–	–
CC(C)C[C@H](NC(=O)c1cc2c(F)cccc2[nH]1)C(=O)N[C@@H](C[C@@H]1CCNC1=O)C(=O)CO [Compound A-3-e, (2S)-2-[(4-fluoro-1H-indol-2-yl)formamido]-N-[(2S)-4-hydroxy-3-oxo-1-[(3S)-2-oxopyrrolidin-3-yl]butan-2-yl]-4-methylpentanamide]	5.11 nM	–	0.11	0.17	0.05	–	0.23	–	–	261 ng·h/mL	131 ng/mL	15 min	75 min	–	–	–	–	–	–	–
Cc1cccc2[nH]c(C(=O)N[C@@H](CC(C)C)C(=O)N[C@H](C=O)C[C@@H]3CCNC3=O)cc12 [Compound A-4-a, 4-methyl-N—((S)-4-methyl-1-oxo-1-(((S)-1-oxo-3-((S)-2-oxopyrrolidin-3-yl)propan-2-yl)amino)pentan-2-yl)-1H-indole-2-carboxamide]	2.39 nM	1130 nM	0.21	0.06	0.22	0.098	0.13	–	–	–	–	–	60 min	–	–	–	–	–	–	–
Cc1cccc2[nH]c(C(=O)N[C@@H](CC(C)C)C(=O)N[C@@H](C[C@@H]3CCNC3=O)C(=O)CO)cc12 [Compound A-4-d]	–	–	0.18	0.19	0.08	–	0.44	4.13 nM	–	–	–	–	–	2060 nM	120 ng·h/mL	52 ng/mL	4 h	128 min	–	–
CC(C)C[C@H](CC(=O)[C@@H](NC(=O)OCc1ccccc1)[C@@H](C)OC(C)(C)C)C(=O)N[C@H](C=O)C[C@@H]1CCNC1=O [Compound C-1-b]	–	–	0.66	0.23	0.48	0.51	0.45	1.3 nM	–	–	–	–	–	1020 nM	128.4 ng·h/mL	46.1 ng/mL	2 h	42.2 min	2.9%	–
CC(C)(C)[C@H](NC(=O)C(F)(F)F)C(=O)N1C[C@H]2[C@@H]([C@H]1C(=O)N[C@H](C=O)C[C@@H]1CCNC1=O)C2(C)C [Compound D-1-f]	–	–	0.093,	−0.02	0.01	0.13	−0.02	1.08 nM	–	–	–	–	–	7590 nM	1402 ng·h/mL	839 ng/mL	1 h	82.2 min	–	0.22(0.1 uM)*
CC(C)(C)[C@H](NC(=O)C(F)(F)F)C(=O)N1C[C@H]2[C@@H]([C@H]1C(=O)N[C@H](C#N)C[C@@H]1CCCNC1=O)C2(C)C [Compound D-3-a]	–	–	0.38	0.09	0.16	–	0.66	5.83 nM	–	–	–	–	–	1270 nM	5590 ng·h/mL	7070 ng/mL	0.25 h	42.4 min	–	–
CC(C)C[C@H](NC(=O)c1cc2ccccc2[nH]1)C(=O)N1C[C@H]2[C@@H]([C@H]1C(=O)N[C@H](C=O)C[C@@H]1CCNC1=O)C2(C)C [Compound G-1-a]	–	–	0.28	0.16	0.09	0.33	0.00	9.57 nM	–	–	–	–	–	25100 nM	36.1 ng·h/mL	13.3 ng/mL	1 h	55.2 min	–	–
CC(C)C[C@H](NC(=O)c1cc2ccccc2[nH]1)C(=O)N1C[C@H]2[C@@H]([C@H]1C(=O)N[C@H](C#N)C(C)(C)C)C2(C)C [Compound G-3-b]	–	–	0.28	0.20	0.32	–	0.55	> 10000 nM	–	–	–	–	–	–	383.7 ng·h/mL	169 ng/mL	2 h	46.4 min	–	–
CC(C)C[C@H](NC(=O)C(F)F)C(=O)N1C[C@H]2[C@@H]([C@H]1C(=O)N[C@H](C=O)C[C@@H]1CCNC1=O)C2(C)C [Compound H-1-a]	–	–	0.08	0.05	0.10	–	0.24	6.35 nM	inactive	–	–	–	–	–	–	–	–	–	–	–
CC(C)C[C@H](NC(=O)C(C)(C)C)C(=O)N1C[C@H]2[C@@H]([C@H]1C(=O)N[C@H](C#N)C[C@@H]1CCNC1=O)C2(C)C [Compound H-1-d]	–	–	0.26	0.09	0.16	–	0.63	39.6 nM	Inactive	–	–	–	–	–	–	–	–	–	–	–
CC(C)C[C@H](NC(=O)C1CC1)C(=O)N1C[C@H]2[C@@H]([C@H]1C(=O)N[C@H](C#N)C[C@@H]1CCNC1=O)C2(C)C [Compound H-1-f]	–	–	0.03	0.04	0.01	–	0.27	28.6 nM	Inactive	–	–	–	–	–	72.0 ng·h/mL	32.1 ng/mL	1.0 h	85.8 min	–	–
CC(C)(C)C(=O)N[C@H](C(=O)N1C[C@H]2[C@@H]([C@H]1C(=O)N[C@H](C#N)C[C@@H]1CCNC1=O)C2(C)C)C(C)(C)C [Compound H-2-a]	–	–	0.53	0.15	0.52	–	0.83	40.7 nM	Inactive	–	–	–	–	–	–	–	–	–	–	–
CC(C)(C)[C@H](NC(=O)C1CC1)C(=O)N1C[C@H]2[C@@H]([C@H]1C(=O)N[C@H](C#N)C[C@@H]1CCNC1=O)C2(C)C [Compound H-2-c]	–	–	0.02	0.01	0.01	–	0.32	6.1 nM	–	–	–	–	–	3360 nM	–	–	–	–	–	–
CC(C)C[C@H](NC(=O)[C@@H](NC(=O)C(F)F)[C@@H](C)OC(C)(C)C)C(=O)N[C@H](C#N)C[C@@H]1CCNC1=O [Compound H-3-a]	–	–	0.35	0.21	0.06	–	0.68	8.1 nM	–	–	–	–	–	2190 nM	–	–	–	–	–	–

— patent US11753373B2, “Protease inhibitors as antivirals” (priority 2021, dated 2023)
